Source: patent publication US20240325398A1, “COMBINATION THERAPIES” (Infinity Pharmaceuticals, Inc., priority 2014, published 2024)

How the values were obtained:
Assay in all cases: Combination study, ATPLite 72 h, dose matrix (Synergy Score, CI50)
Farage = details: combination with Compound 1; Farage DLBCL cell line; FIG. 4-5
TMD8 = details: for CI50 growth inhibition / CI50 inhibition / Synergy Score growth inhibition / Synergy Score inhibition: TMD8, Example 2
OCI-Ly3 = details: OCT-Ly3, Example 2
U-2932 = tested on: U-2932
HBL-1 = tested on: HBL-1
[1] = combination with CAL-101, Example 2
[2] = combination with Cmpd 1, Example 2

SMILES | Synergy Score growth inhibition (OCI-Ly3; combination with CAL-101) | Synergy Score inhibition (OCI-Ly3; combination with CAL-101) | CI50 growth inhibition (OCI-Ly3; combination with Cmpd 1) | Synergy Score growth inhibition (OCI-Ly3; combination with Cmpd 1) | Synergy Score inhibition (OCI-Ly3; combination with Cmpd 1) | Synergy Score growth inhibition (U-2932; [1]) | Synergy Score inhibition (U-2932; [1]) | Synergy Score growth inhibition (U-2932; [2]) | Synergy Score inhibition (U-2932; [2]) | CI50 growth inhibition (TMD8; combination with CAL-101) | CI50 inhibition (TMD8; combination with CAL-101) | Synergy Score growth inhibition (TMD8; combination with CAL-101) | Synergy Score inhibition (TMD8; combination with CAL-101) | CI50 growth inhibition (TMD8; combination with Cmpd 1) | CI50 inhibition (TMD8; combination with Cmpd 1) | Synergy Score growth inhibition (TMD8; combination with Cmpd 1) | Synergy Score inhibition (TMD8; combination with Cmpd 1) | Synergy Score growth inhibition (HBL-1; [1]) | Synergy Score inhibition (HBL-1; [1]) | Synergy Score growth inhibition (HBL-1; [2]) | other results
COc1ccc(-c2ccc3c(N4CCOC[C@@H]4C)nc(N4CCOC[C@@H]4C)nc3n2)cc1CO [AZD8055, (5-{2,4-bis[(3S)-3-methylmorpholin-4-yl]pyrido[2,3-d]pyrimidin-7-yl}-2-methoxyphenyl)methanol] |  |  |  |  |  |  |  |  |  |  |  |  |  |  |  |  |  |  |  |  | effect of the combination (isobologram) (Farage): synergistic effect; effect of the combination (isobologram) (TMD8; combination with Compound 1, TMD8 DLBCL cell line, FIG. 1-3): synergistic effect
C=CC(=O)N1CCC[C@@H](n2nc(-c3ccc(Oc4ccccc4)cc3)c3c(N)ncnc32)C1 [PCI-32765] | A1 (A1=0.0001 to <1) | A1 (A1=0.0001 to <1) | S (S=0.01 to <0.5) | A1 (A1=0.0001 to <1) | A1 (A1=0.0001 to <1) | A2 (A2=1 to <3) | A2 (A2=1 to <3) | A2 (A2=1 to <3) | A2 (A2=1 to <3) | S (S=0.01 to <0.5) | S (S=0.01 to <0.5) | A3 (A3=>3) | A3 (A3=>3) | U (U=0.7 to <1) | T (T=0.5 to <0.7) | A3 (A3=>3) | A3 (A3=>3) | A2 (A2=1 to <3) | A1 (A1=0.0001 to <1) | A2 (A2=1 to <3) | CI50 growth inhibition (U-2932; [1]): T (T=0.5 to <0.7); CI50 inhibition (U-2932; [1]): U (U=0.7 to <1); CI50 growth inhibition (U-2932; [2]): U (U=0.7 to <1); CI50 inhibition (U-2932; [2]): U (U=0.7 to <1); CI50 growth inhibition (HBL-1; [1]): S (S=0.01 to <0.5); CI50 growth inhibition (HBL-1; [2]): S (S=0.01 to <0.5); Synergy Score inhibition (HBL-1; [2]): A1 (A1=0.0001 to <1)
CC(=O)c1c(C)c2cnc(Nc3ccc(N4CCNCC4)cn3)nc2n(C2CCCC2)c1=O [PD-0332991] | A3 (A3=>3) | A2 (A2=1 to <3) | T (T=0.5 to <0.7) | A2 (A2=1 to <3) | A1 (A1=0.0001 to <1) | A1 (A1=0.0001 to <1) | A1 (A1=0.0001 to <1) | A1 (A1=0.0001 to <1) | A1 (A1=0.0001 to <1) | S (S=0.01 to <0.5) | S (S=0.01 to <0.5) | A3 (A3=>3) | A2 (A2=1 to <3) | S (S=0.01 to <0.5) | S (S=0.01 to <0.5) | A3 (A3=>3) | A2 (A2=1 to <3) | A1 (A1=0.0001 to <1) | A1 (A1=0.0001 to <1) | A1 (A1=0.0001 to <1) | CI50 growth inhibition (OCI-Ly3; combination with CAL-101): S (S=0.01 to <0.5); CI50 inhibition (OCI-Ly3; combination with CAL-101): S (S=0.01 to <0.5); CI50 inhibition (OCI-Ly3; combination with Cmpd 1): U (U=0.7 to <1); Synergy Score inhibition (HBL-1; [2]): A1 (A1=0.0001 to <1)
